Laboratory results as given in the supplement of paper PMC10307832.

Key:
Experiment in all cases: relative viability (nuclei count vs DMSO), 5 days (fraction); higher = more cells survive
Venetoclax + Lapatinib = compound: CC1(C)CCC(CN2CCN(c3ccc(C(=O)NS(=O)(=O)c4ccc(NCC5CCOCC5)c([N+](=O)[O-])c4)c(Oc4cnc5[nH]ccc5c4)c3)CC2)=C(c2ccc(Cl)cc2)C1 [Venetoclax] + CS(=O)(=O)CCNCc1ccc(-c2ccc3ncnc(Nc4ccc(OCc5cccc(F)c5)c(Cl)c4)c3c2)o1 [Lapatinib] (partner 2 µM)
How it was run: (§1)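 A single step with final 0.05% Triton X-100, 1% formaldehyde and 1 ug/ml Hoechst fixed the cells and stained nuclei 5 days after treatment. Lung cancer cell lines in 1536-well plates had been treated by pin tool the day after seeding with one drug alone or a fixed anchor-drug dose plus five library-drug doses (not always all listed) in √10 steps, and nuclei were counted on 4× images. Relative viability is the ratio of nuclei in treated wells to nuclei in vehicle wells, taken as the median of duplicate plates.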

Venetoclax + Pictilisib = compound: CC1(C)CCC(CN2CCN(c3ccc(C(=O)NS(=O)(=O)c4ccc(NCC5CCOCC5)c([N+](=O)[O-])c4)c(Oc4cnc5[nH]ccc5c4)c3)CC2)=C(c2ccc(Cl)cc2)C1 [Venetoclax] + CS(=O)(=O)N1CCN(Cc2cc3nc(-c4cccc5[nH]ncc45)nc(N4CCOCC4)c3s2)CC1 [Pictilisib] (partner 1 µM)
How it was run: as §1

Selumetinib + Lapatinib = compound: Cn1cnc2c(F)c(Nc3ccc(Br)cc3Cl)c(C(=O)NOCCO)cc21 [Selumetinib] + CS(=O)(=O)CCNCc1ccc(-c2ccc3ncnc(Nc4ccc(OCc5cccc(F)c5)c(Cl)c4)c3c2)o1 [Lapatinib] (partner 2 µM)
How it was run: as §1

Selumetinib + Alpelisib = compound: Cn1cnc2c(F)c(Nc3ccc(Br)cc3Cl)c(C(=O)NOCCO)cc21 [Selumetinib] + Cc1nc(NC(=O)N2CCC[C@H]2C(N)=O)sc1-c1ccnc(C(C)(C)C(F)(F)F)c1 [Alpelisib] (partner 2 µM)
How it was run: as §1

Work on SW 1573 yielded a relative viability (Venetoclax + Lapatinib; first compound 0.01 µM) of 1.15, a relative viability (Venetoclax + Lapatinib; first compound 0.03162 µM) of 0.979 and a relative viability (Venetoclax + Lapatinib; first compound 0.1 µM) of 0.935. For the same cell line, the relative viability (Venetoclax + Lapatinib; first compound 0.3162 µM) was 1.08, the relative viability (Venetoclax + Lapatinib; first compound 1 µM) was 0.966 and the relative viability (Venetoclax + Pictilisib; first compound 0.01 µM) was 0.471. The relative viability (Venetoclax + Pictilisib; first compound 0.03162 µM) was 0.615, the relative viability (Venetoclax + Pictilisib; first compound 0.1 µM) was 0.435 and the relative viability (Venetoclax + Pictilisib; first compound 0.3162 µM) was 0.459. For the same cell line, the relative viability (Venetoclax + Pictilisib; first compound 1 µM) was 0.487, the relative viability (Selumetinib + Lapatinib; first compound 0.02 µM) was 1.19 and the relative viability (Selumetinib + Lapatinib; first compound 0.06325 µM) was 1.01. It also gave a relative viability (Selumetinib + Lapatinib; first compound 0.2 µM) of 1.04, a relative viability (Selumetinib + Lapatinib; first compound 0.6325 µM) of 0.788 and a relative viability (Selumetinib + Alpelisib; first compound 0.02 µM) of 0.868. It also gave a relative viability (Selumetinib + Alpelisib; first compound 0.06325 µM) of 0.707, a relative viability (Selumetinib + Alpelisib; first compound 0.2 µM) of 0.618 and a relative viability (Selumetinib + Alpelisib; first compound 0.6325 µM) of 0.552.

In the case of NCI-H2405, the relative viability (Venetoclax + Lapatinib; first compound 0.01 µM) was 1.07, the relative viability (Venetoclax + Lapatinib; first compound 0.03162 µM) was 1.08 and the relative viability (Venetoclax + Lapatinib; first compound 0.3162 µM) was 1.01. It also gave a relative viability (Venetoclax + Lapatinib; first compound 1 µM) of 1, a relative viability (Venetoclax + Pictilisib; first compound 0.01 µM) of 0.505 and a relative viability (Venetoclax + Pictilisib; first compound 0.03162 µM) of 0.472. For the same cell line, the relative viability (Venetoclax + Pictilisib; first compound 0.3162 µM) was 0.394, the relative viability (Venetoclax + Pictilisib; first compound 1 µM) was 0.402 and the relative viability (Selumetinib + Lapatinib; first compound 0.02 µM) was 1.05. It also gave a relative viability (Selumetinib + Lapatinib; first compound 0.06325 µM) of 0.852, a relative viability (Selumetinib + Lapatinib; first compound 0.2 µM) of 0.644 and a relative viability (Selumetinib + Lapatinib; first compound 0.6325 µM) of 0.591. For the same cell line, the relative viability (Selumetinib + Alpelisib; first compound 0.02 µM) was 0.737, the relative viability (Selumetinib + Alpelisib; first compound 0.06325 µM) was 0.472 and the relative viability (Selumetinib + Alpelisib; first compound 0.2 µM) was 0.427. It also gave a relative viability (Selumetinib + Alpelisib; first compound 0.6325 µM) of 0.277.

Work on HCC-44 yielded a relative viability (Venetoclax + Lapatinib; first compound 0.01 µM) of 0.981, a relative viability (Venetoclax + Lapatinib; first compound 0.03162 µM) of 0.979 and a relative viability (Venetoclax + Lapatinib; first compound 0.1 µM) of 0.997. It also gave a relative viability (Venetoclax + Lapatinib; first compound 0.3162 µM) of 1.08, a relative viability (Venetoclax + Lapatinib; first compound 1 µM) of 0.973 and a relative viability (Venetoclax + Pictilisib; first compound 0.01 µM) of 0.63. For the same cell line, the relative viability (Venetoclax + Pictilisib; first compound 0.03162 µM) was 0.595, the relative viability (Venetoclax + Pictilisib; first compound 0.1 µM) was 0.596 and the relative viability (Venetoclax + Pictilisib; first compound 0.3162 µM) was 0.578. For the same cell line, the relative viability (Venetoclax + Pictilisib; first compound 1 µM) was 0.608, the relative viability (Selumetinib + Lapatinib; first compound 0.02 µM) was 0.977 and the relative viability (Selumetinib + Lapatinib; first compound 0.06325 µM) was 1. The relative viability (Selumetinib + Lapatinib; first compound 0.2 µM) was 0.891, the relative viability (Selumetinib + Lapatinib; first compound 0.6325 µM) was 0.966 and the relative viability (Selumetinib + Alpelisib; first compound 0.02 µM) was 0.88. For the same cell line, the relative viability (Selumetinib + Alpelisib; first compound 0.06325 µM) was 0.72, the relative viability (Selumetinib + Alpelisib; first compound 0.2 µM) was 0.719 and the relative viability (Selumetinib + Alpelisib; first compound 0.6325 µM) was 0.663.

Work on EMC-BAC-2 yielded a relative viability (Venetoclax + Lapatinib; first compound 0.01 µM) of 0.88, a relative viability (Venetoclax + Lapatinib; first compound 0.03162 µM) of 0.878 and a relative viability (Venetoclax + Lapatinib; first compound 0.1 µM) of 0.731. It also gave a relative viability (Venetoclax + Lapatinib; first compound 0.3162 µM) of 0.847, a relative viability (Venetoclax + Lapatinib; first compound 1 µM) of 0.827 and a relative viability (Venetoclax + Pictilisib; first compound 0.01 µM) of 0.459. The relative viability (Venetoclax + Pictilisib; first compound 0.03162 µM) was 0.56, the relative viability (Venetoclax + Pictilisib; first compound 0.1 µM) was 0.452 and the relative viability (Venetoclax + Pictilisib; first compound 0.3162 µM) was 0.544. It also gave a relative viability (Venetoclax + Pictilisib; first compound 1 µM) of 0.535, a relative viability (Selumetinib + Lapatinib; first compound 0.02 µM) of 0.955 and a relative viability (Selumetinib + Lapatinib; first compound 0.06325 µM) of 0.898. For the same cell line, the relative viability (Selumetinib + Lapatinib; first compound 0.2 µM) was 0.905, the relative viability (Selumetinib + Lapatinib; first compound 0.6325 µM) was 0.862 and the relative viability (Selumetinib + Alpelisib; first compound 0.02 µM) was 0.678. The relative viability (Selumetinib + Alpelisib; first compound 0.06325 µM) was 0.694, the relative viability (Selumetinib + Alpelisib; first compound 0.2 µM) was 0.645 and the relative viability (Selumetinib + Alpelisib; first compound 0.6325 µM) was 0.712.

NCI-H322M gave a relative viability (Venetoclax + Lapatinib; first compound 0.01 µM) of 0.659, a relative viability (Venetoclax + Lapatinib; first compound 0.03162 µM) of 0.601 and a relative viability (Venetoclax + Lapatinib; first compound 0.1 µM) of 0.552. It also gave a relative viability (Venetoclax + Lapatinib; first compound 0.3162 µM) of 0.533, a relative viability (Venetoclax + Lapatinib; first compound 1 µM) of 0.57 and a relative viability (Venetoclax + Pictilisib; first compound 0.01 µM) of 0.558. For the same cell line, the relative viability (Venetoclax + Pictilisib; first compound 0.03162 µM) was 0.511, the relative viability (Venetoclax + Pictilisib; first compound 0.1 µM) was 0.488 and the relative viability (Venetoclax + Pictilisib; first compound 0.3162 µM) was 0.532. The relative viability (Venetoclax + Pictilisib; first compound 1 µM) was 0.487, the relative viability (Selumetinib + Lapatinib; first compound 0.02 µM) was 0.524 and the relative viability (Selumetinib + Lapatinib; first compound 0.06325 µM) was 0.479. It also gave a relative viability (Selumetinib + Lapatinib; first compound 0.2 µM) of 0.439, a relative viability (Selumetinib + Lapatinib; first compound 0.6325 µM) of 0.438 and a relative viability (Selumetinib + Alpelisib; first compound 0.02 µM) of 0.643. The relative viability (Selumetinib + Alpelisib; first compound 0.06325 µM) was 0.549, the relative viability (Selumetinib + Alpelisib; first compound 0.2 µM) was 0.563 and the relative viability (Selumetinib + Alpelisib; first compound 0.6325 µM) was 0.532.

For NCI-H358, the relative viability (Venetoclax + Lapatinib; first compound 0.01 µM) was 0.502, the relative viability (Venetoclax + Lapatinib; first compound 0.03162 µM) was 0.452 and the relative viability (Venetoclax + Lapatinib; first compound 0.1 µM) was 0.412. It also gave a relative viability (Venetoclax + Lapatinib; first compound 0.3162 µM) of 0.499, a relative viability (Venetoclax + Lapatinib; first compound 1 µM) of 0.468 and a relative viability (Venetoclax + Pictilisib; first compound 0.01 µM) of 0.323. For the same cell line, the relative viability (Venetoclax + Pictilisib; first compound 0.03162 µM) was 0.364, the relative viability (Venetoclax + Pictilisib; first compound 0.1 µM) was 0.3 and the relative viability (Venetoclax + Pictilisib; first compound 0.3162 µM) was 0.327. It also gave a relative viability (Venetoclax + Pictilisib; first compound 1 µM) of 0.363, a relative viability (Selumetinib + Lapatinib; first compound 0.02 µM) of 0.38 and a relative viability (Selumetinib + Lapatinib; first compound 0.06325 µM) of 0.334. The relative viability (Selumetinib + Lapatinib; first compound 0.2 µM) was 0.391, the relative viability (Selumetinib + Lapatinib; first compound 0.6325 µM) was 0.314 and the relative viability (Selumetinib + Alpelisib; first compound 0.02 µM) was 0.645. The relative viability (Selumetinib + Alpelisib; first compound 0.06325 µM) was 0.472, the relative viability (Selumetinib + Alpelisib; first compound 0.2 µM) was 0.39 and the relative viability (Selumetinib + Alpelisib; first compound 0.6325 µM) was 0.305.

NCI-H1944 was tested, and the relative viability (Venetoclax + Lapatinib; first compound 0.01 µM) was 0.859, the relative viability (Venetoclax + Lapatinib; first compound 0.03162 µM) was 0.654 and the relative viability (Venetoclax + Lapatinib; first compound 0.1 µM) was 0.802. For the same cell line, the relative viability (Venetoclax + Lapatinib; first compound 0.3162 µM) was 0.853, the relative viability (Venetoclax + Lapatinib; first compound 1 µM) was 0.912 and the relative viability (Venetoclax + Pictilisib; first compound 0.01 µM) was 0.369. For the same cell line, the relative viability (Venetoclax + Pictilisib; first compound 0.03162 µM) was 0.37, the relative viability (Venetoclax + Pictilisib; first compound 0.1 µM) was 0.355 and the relative viability (Venetoclax + Pictilisib; first compound 0.3162 µM) was 0.383. For the same cell line, the relative viability (Venetoclax + Pictilisib; first compound 1 µM) was 0.36, the relative viability (Selumetinib + Lapatinib; first compound 0.02 µM) was 0.812 and the relative viability (Selumetinib + Lapatinib; first compound 0.06325 µM) was 0.666. The relative viability (Selumetinib + Lapatinib; first compound 0.2 µM) was 0.63, the relative viability (Selumetinib + Lapatinib; first compound 0.6325 µM) was 0.634 and the relative viability (Selumetinib + Alpelisib; first compound 0.02 µM) was 0.71. For the same cell line, the relative viability (Selumetinib + Alpelisib; first compound 0.06325 µM) was 0.677, the relative viability (Selumetinib + Alpelisib; first compound 0.2 µM) was 0.594 and the relative viability (Selumetinib + Alpelisib; first compound 0.6325 µM) was 0.52.

H3255 showed a relative viability (Venetoclax + Lapatinib; first compound 0.01 µM) of 0.268, a relative viability (Venetoclax + Lapatinib; first compound 0.03162 µM) of 0.263 and a relative viability (Venetoclax + Lapatinib; first compound 0.1 µM) of 0.195. For the same cell line, the relative viability (Venetoclax + Lapatinib; first compound 0.3162 µM) was 0.282, the relative viability (Venetoclax + Lapatinib; first compound 1 µM) was 0.319 and the relative viability (Venetoclax + Pictilisib; first compound 0.01 µM) was 0.47. For the same cell line, the relative viability (Venetoclax + Pictilisib; first compound 0.03162 µM) was 0.527, the relative viability (Venetoclax + Pictilisib; first compound 0.1 µM) was 0.457 and the relative viability (Venetoclax + Pictilisib; first compound 0.3162 µM) was 0.486. The relative viability (Venetoclax + Pictilisib; first compound 1 µM) was 0.482, the relative viability (Selumetinib + Lapatinib; first compound 0.02 µM) was 0.238 and the relative viability (Selumetinib + Lapatinib; first compound 0.06325 µM) was 0.267. The relative viability (Selumetinib + Lapatinib; first compound 0.2 µM) was 0.218, the relative viability (Selumetinib + Lapatinib; first compound 0.6325 µM) was 0.243 and the relative viability (Selumetinib + Alpelisib; first compound 0.02 µM) was 0.596. It also gave a relative viability (Selumetinib + Alpelisib; first compound 0.06325 µM) of 0.678, a relative viability (Selumetinib + Alpelisib; first compound 0.2 µM) of 0.573 and a relative viability (Selumetinib + Alpelisib; first compound 0.6325 µM) of 0.556.
